{
  "source": "paper PMC2139966",
  "about": "(The Journal of Cell Biology, 1997)",
  "target": "band 3 (anion exchanger AE1)",
  "assay": "[…]SO4/SO4 exchange in band […] proteoliposomes",
  "format": "biochemical, Oryctolagus cuniculus",
  "data": [
    {"smiles": "O=[N+]([O-])c1ccc(/C=C/c2ccc([N+](=O)[O-])cc2S(=O)(=O)O)c(S(=O)(=O)O)c1", "note": "[DNDS, 4,4′-dinitorsostilbene-2,2′-disulfonic acid]", "values": [
      {"measurement": "Ki", "result": "2000 ± 1000", "unit": "nM"}
    ]}
  ]
}
